Measurements: patent publication US20030113665A1, “Optical data medium containing, in the information layer, a dye as a light-absorbing compound” (priority 2001, published 2003)
Like-named read-outs stand apart in the source and are kept apart here.

Experiments:
[1] = Recording/readout test of optical disc with vapour-deposited phthalocyanine information layer
Text: Directly on top of the grooved surface the information layer of 40 nm was coated by vacuum vapor deposition method. […] Total thickness of the adhesive layer and the cover layer was set as 100 μm.
The parameters of readout/recording setup was as follows.
Numerical aperture of the objective lens=0.85, two element lens
Readout laser power=0.30 mW
Writing laser power=6.0 mW
Pulse strategy=7 pulses with 50% duty inside one mark
The dye dichloro-silicon-phthalocyanine (SiCl2Pc) was applied for the information layer.

[2] = UV absorption spectra in solution; type: physicochemical; details: for λmax: in dioxane (Tables 1-3); for λ1/2-λ1/10: on the shortwave slope (Tables 1-3); for UV (dioxane): λmax: in dioxane; for UV (DMF): λmax: in DMF
Text: For a, preferably singly recordable, optical data carrier according to the invention which is written and read by light from a blue laser such merocyanine dyes are preferred whose absorption maximum λmax2 is in the range from 420 bis 550 nm, wherein the wavelength λ½ at which the extinction on the shortwave slope of the absorption maximum of the wavelength λmax2 is half the extinction value at λmax2 and the wavelength λ 1/10 at which the extinction on the shortwave slope of the absorption maximum of the wavelength λmax2 is a tenth of the extinction value at λmax2, are preferably in each case no further than 50 nm away from each other.
The absorption spectra are measured for example in solution.
Suitable merocyanines having the required spectral properties are in particular those in which the change in dipole moment Δμ=|μg-μag|, i.e. the positive difference between the dipole moments in the ground state and in the first excited state, is as small as possible, preferably <5 D, and particularly preferably <2 D. One method of determining such a change in dipole moment Δμ is described for example in F. Würthner et al., Angew. Chem. 1997, 109, 2933 and in the literature cited therein. Low solvatochromism (dioxane/DMF) is also a suitable criterion for selection. Merocyanines are preferred whose solvatochromism Δλ=|λDMF-λdioxane|, i.e. the positive difference between the absorption wavelengths in the solvents dimethylformamide and dioxane is <20 nm, particularly preferably <10 nm and very particularly preferably <5 nm.

[3] = Solubility in coating solvent; type: physicochemical; details: in TFP (2,2,3,3-tetrafluoropropanol)
[4] = UV absorption spectra in solution; type: physicochemical
[5] = = |λDMF − λdioxane| (Tables 1-3)
[6] = molar extinction coefficient at absorption maximum

**Q.** For “dichloro-silicon-phthalocyanine [Example 2]”, which readout stability ([1]; SiO2 buffer layer and PSA layer, 100 μm cover) is on record?
**A.** very high

**Q.** For `[Cl][Al]1[n]2c3c4ccccc4c2/N=C2N=C(/N=c4/c5ccccc5/c([n]41)=N/C1=NC(=N\3)/c3ccccc31)c1ccccc1\2` [Example 1, monochloro-aluminium-phthalocyanine], which readout stability [1] is on record?
**A.** surprisingly good

**Q.** For `C=C1N(CCCCN2C(=C)C(C)(C)c3ccccc32)c2ccccc2C1(C)C` [Example 77], which λmax [2] is on record?
**A.** 500 nm

**Q.** For `C=C1N(C)c2ccc(C)cc2C1(C)C` [Example 63], which Δλ [2, 5] is on record?
**A.** 6 nm

**Q.** What about the ε ([2]; Tables 1-3) of the same molecule?
**A.** 41530 L/mol/cm

**Q.** And the λmax [2]?
**A.** 503 nm

**Q.** And the λ1/2-λ1/10 [2]?
**A.** 36^3) nm

**Q.** For `CCCCCCCCCCCCN1C(=O)/C(=C/c2ccc(N(C)C)o2)C(=O)N(C)C1=O` [Example 27], which “UV (dioxane): λmax” value [2] is on record?
**A.** 483 nm

**Q.** What about the “λ½-λ1/10 (shortwave slope)” value [2] of the same molecule?
**A.** 32 nm

**Q.** Which results are given for `CC1=C([n+]2ccccc2)C(=O)NC(=O)/C1=C/C=C1\N(C)c2ccccc2C1(C)C` [Example 26]?
**A.** UV (methanol): λmax ([2]; in methanol): 513 nm; ε [2, 6]: 86510 L/mol/cm; λ½-λ1/10 (shortwave slope) [2]: 38 nm

**Q.** What does the source list for `CCCN1C(=O)C(C#N)=C(C)/C(=C\C=C\N(C)c2ccc(OC)cc2)C1=O` [Example 25]?
**A.** UV (DMF): λmax [2]: 477 nm; UV (dioxane): λmax [2]: 482 nm; ε [2, 6]: 73013 L/mol/cm; λ½-λ1/10 (shortwave slope) [2]: 33 nm; Δλ ([2]; solvatochromism |λDMF-λdioxane|): 5 nm; Solubility [3]: > 2%

**Q.** What does the source list for `C=C1N(C)c2ccccc2C1(C)C` [Example 56]?
**A.** Δλ [2, 5]: 5 nm; ε ([2]; Tables 1-3): 46470 L/mol/cm; λmax [2]: 499 nm; λ1/2-λ1/10 [2]: 36^3) nm

**Q.** What does the source list for `CN1/C(=C\C=C(\C#N)c2nc3ccccc3s2)C(C)(C)c2ccccc21` [Example 76]?
**A.** λmax [2]: 462 nm; λ1/2-λ1/10 [2]: 34^3) nm

**Q.** Which Δλ [2, 5] does the source give for `Cc1cnc(N(C)C)s1` [Example 28] here?
**A.** 16 nm

**Q.** And the ε ([2]; Tables 1-3)?
**A.** 40990 L/mol/cm

**Q.** What about the λmax [2] of the same molecule?
**A.** 470 nm

**Q.** And the λ1/2-λ1/10 [2]?
**A.** 32^3) nm

**Q.** With `CCCCN1C(=O)C(C#N)=C(C)/C(=C\C=C2/N(C)c3ccccc3C2(C)C)C1=O` [Example 24] as the molecule, how does the “UV (DMF): λmax” value [2] read?
**A.** 522 nm

**Q.** What about the “UV (dioxane): λmax” value [2] of the same molecule?
**A.** 520 nm

**Q.** What about the “λ½-λ1/10 (longwave slope)” value [4] of the same molecule?
**A.** 12 nm

**Q.** What about the Solubility [3] of the same molecule?
**A.** > 2%
